Data taken from the Deep4Chem optical property database.
“And” between values parts separate entries of the source, which are not always exact repeats. Equal entries are not always repeated.

Experiment: solvent given as SMILES

Compound: Cc1oc2c(Cl)cc3c(C)cc(=O)oc3c2c1C
- fluorescence lifetime (in C1COCCO1): 0.08 ns
- fluorescence lifetime (in CC#N): 0.15 ns
- fluorescence lifetime (in CCO): 0.79 ns
- fluorescence lifetime (in OCC(F)(F)F): 2.4 ns

Compound: CCCCCCCCOc1ccc2c3cccc4c(OCCCCCCCC)ccc(c5cccc1c52)c43
- fluorescence lifetime (in C1CCOC1): 3.88 ns
- fluorescence lifetime (in Cc1ccccc1): 3.65 ns
- fluorescence lifetime (in ClC(Cl)(Cl)Cl): 3.82 ns
- fluorescence lifetime (in ClC(Cl)Cl): 3.77 ns
- fluorescence lifetime (in ClCCl): 4.17 ns
- fluorescence lifetime (in c1ccncc1): 4.01 ns

Compound: COC(=O)CC1(C(=O)O)Oc2c(c(C(C)=O)c3c(c2C(C)=O)OCO3)O1
- fluorescence lifetime (in CC#N): 20 ns

Compound: CCOC(=O)c1csc2[n+]1[B-](F)(F)OC(c1ccc(N(C)C)cc1)=N2
- fluorescence lifetime (in C1CCOC1): 2.1 ns

Compound: N#Cc1cnc(-c2c3ccccc3c(-c3ncc(C#N)cn3)c3ccccc23)nc1
- fluorescence lifetime (in CCO): 2.5 ns
- fluorescence lifetime (in ClCCl): 5.6 ns

Compound: CCCCCCN(CCCCCC)c1ccc(C#Cc2ccc(-c3ccc(C#Cc4ccc(N(CCCCCC)CCCCCC)cc4)cc3)cc2)cc1
- fluorescence lifetime (in Cc1ccccc1): 1 ns

Compound: Cc1ccc(-c2cc(-c3ccccc3Cl)c3c(N)nc(N4CCCC4)c(C#N)c3n2)cc1
- fluorescence lifetime (in CC#N): 11.3 ns
- fluorescence lifetime (in CC(C)=O): 11.1 ns
- fluorescence lifetime (in CC(C)O): 11.3 ns
- fluorescence lifetime (in CO): 9.7 ns
- fluorescence lifetime (in ClC(Cl)Cl): 13.7 ns
- fluorescence lifetime (in ClCCl): 13.7 ns
- fluorescence lifetime (in c1ccccc1): 12.8 ns

Compound: CC[n+]1c(C=C2C(=O)C(C=C3N(C)c4ccc(Cl)cc4C3(C)C)=C2[O-])[se]c2ccccc21
- fluorescence lifetime (in CO): 0.43 ns
- fluorescence lifetime (in ClC(Cl)Cl): 2.14 ns

Compound: CCCCCCCCC1(CCCCCCCC)c2ccccc2-c2ccc(-c3nnc(-c4ccc(-n5c6ccc(C(C)(C)C)cc6c6cc(C(C)(C)C)ccc65)cc4)o3)cc21
- fluorescence lifetime (in Cc1ccccc1): 1.7 ns

Compound: CCN(CC)c1ccc2cc(-c3ccc(-c4c5ccccc5c(-c5ccc(-c6cc7ccc(N(CC)CC)cc7oc6=O)cc5)c5ccccc45)cc3)c(=O)oc2c1
- fluorescence lifetime (in ClC(Cl)Cl): 8.9 ns

Compound: Nc1ccc2c(c1)C(=O)NC2=O
- fluorescence lifetime (in C1CCOC1): 12.4 ns and 20.8 ns
- fluorescence lifetime (in C1COCCO1): 15 ns
- fluorescence lifetime (in CC#N): 14 ns
- fluorescence lifetime (in CCO): 10 ns
- fluorescence lifetime (in CN(C)C=O): 22 ns

Compound: CCOC(=O)C1=CNC=C(C(=O)OCC)C1c1ccccc1
- fluorescence lifetime (in C1CCOC1): 7.83 ns
- fluorescence lifetime (in CO): 13.8 ns

Compound: CC1(C)CC(NCc2ccc3ccc4cccc5ccc2c3c45)CC(C)(C)N1
- fluorescence lifetime (in C1CCCCC1): 61.8 ns
- fluorescence lifetime (in CC#N): 26.2 ns
- fluorescence lifetime (in CO): 41.9 ns
- fluorescence lifetime (in ClC(Cl)Cl): 36.1 ns

Compound: CC1(C)OB(c2cc3ccc4cc(B5OC(C)(C)C(C)(C)O5)cc5ccc(c2)c3c45)OC1(C)C
- fluorescence lifetime (in Cc1ccccc1): 36 ns

Compound: CC(C)(C)c1ccc(C2=c3sc(-c4ccc(C(C)(C)C)cc4)c(-c4ccc(C(C)(C)C)cc4)c3=[N+]3C2=Nc2c(-c4ccc(C(C)(C)C)cc4)c4sc(-c5ccc(C(C)(C)C)cc5)c(-c5ccc(C(C)(C)C)cc5)c4n2[B-]3(F)F)cc1
- fluorescence lifetime (in ClC(Cl)Cl): 1.18 ns

Compound: c1ccc(Nc2nc(Nc3ccccc3)nc(Nc3ccc4c5cccc6cccc(c7cccc3c74)c65)n2)cc1
- fluorescence lifetime (in CCOC(C)=O): 3.6 ns
- fluorescence lifetime (in CS(C)=O): 4.3 ns

Compound: CC1(C)c2ccccc2N(c2ccc(-c3ccc(C#N)cc3)cc2)c2ccccc21
- fluorescence lifetime (in N#Cc1ccc2c(c1)c1ccccc1n2-c1cccc(-n2c3ccccc3c3ccccc32)c1): 6.99 ns

Compound: CCCCCCn1c2cc(/C=C(\C#N)c3cccs3)ccc2c2ccc(/C=C(\C#N)c3cccs3)cc21
- fluorescence lifetime (in ClC(Cl)Cl): 0.56 ns

Compound: Cn1ccc(-n2cncn2)nc1=O
- fluorescence lifetime (in O): 3.43 ns

Compound: CNc1cccc2c1C(=O)c1ccccc1C2=O
- fluorescence lifetime (in C1CCC2CCCCC2C1): 0.446 ns
- fluorescence lifetime (in C1CCCCC1): 0.443 ns
- fluorescence lifetime (in CC1CCCCC1): 0.445 ns
- fluorescence lifetime (in CC#N): 0.204 ns
- fluorescence lifetime (in CCC(C)CC): 0.444 ns
- fluorescence lifetime (in CCCCCC): 0.451 ns
- fluorescence lifetime (in CCOC(C)=O): 0.253 ns

Compound: [O-][n+]1c(/C=C/c2ccccc2)nc(N2CCOCC2)c2c1CCCC2
- fluorescence lifetime (in ClCCl): 9.2 ns

Compound: FC(F)(F)c1ccc(/C2=C3N=C(C(c4ccccc4)=C/3c3ccccc3)/C(c3ccc(C(F)(F)F)cc3)=c3\[nH]/c(c(-c4ccccc4)c3-c3ccccc3)=C(/c3ccc(C(F)(F)F)cc3)C3=N/C(=C(/c4ccc(C(F)(F)F)cc4)c4[nH]c2c(-c2ccccc2)c4-c2ccccc2)C(c2ccccc2)=C3c2ccccc2)cc1
- fluorescence lifetime (in ClCCl): 0.423 ns

Compound: CC1(C)CC(/N=C/c2ccc3ccc4cccc5ccc2c3c45)CC(C)(C)N1[O]
- fluorescence lifetime (in C1CCCCC1): 8.3 ns
- fluorescence lifetime (in CO): 2.1 ns

Compound: CCN(CC)c1ccc2cc(/C(Cl)=C/C=C/C(=C(C#N)C#N)c3ccc(N(c4ccccc4)c4ccccc4)cc3)c(=O)oc2c1
- fluorescence lifetime (in CC(C)=O): 1.51 ns
- fluorescence lifetime (in CCOC(C)=O): 2.42 ns
- fluorescence lifetime (in CN(C)C=O): 0.21 ns
- fluorescence lifetime (in CS(C)=O): 0.18 ns
- fluorescence lifetime (in Cc1ccccc1): 1.95 ns
- fluorescence lifetime (in ClCCl): 1.56 ns

Compound: CC(C)[Si]1(C(C)C)c2cc(N(C)C)ccc2-c2ccc(C(F)(F)F)cc21
- fluorescence lifetime (in C1CCCCC1): 3.3 ns
- fluorescence lifetime (in ClCCl): 2.5 ns

Compound: C[Si](C)(C)c1cccc2ccccc12
- fluorescence lifetime (in C1CCCCC1): 64 ns
